Legend:
NK-YS (IL-2 2.5 ng/mL) [1] = assay: drug sensitivity score (DSS) (DSS units); higher = more sensitive; extreme values may be limits of the assay; settings: 72 h
[2] = tested on: normal primary NK cells, pool 2 (3 donors) (IL-2 2.5 ng/mL); assay: as above; settings: 72 h
[3] = tested on: normal primary NK cells, pool 3 (3 donors) (IL-2 2.5 ng/mL); assay: as above; settings: 72 h
KAI3 (IL-2 2.5 ng/mL) [4] = assay: as above; settings: 72 h
YT (IL-2 2.5 ng/mL) [5] = assay: as above; settings: 72 h
NKL (IL-2 2.5 ng/mL) [6] = assay: as above; settings: 72 h
NK-92 (IL-2 2.5 ng/mL) [7] = assay: as above; settings: 72 h
SNK-6 (IL-2 2.5 ng/mL) [8] = assay: as above; settings: 72 h
IMC-1 (IL-2 20 ng/mL) [9] = assay: as above; settings: 72 h
DERL-7 (IL-2 2.5 ng/mL) [10] = assay: as above; settings: 72 h
KHYG-1 (IL-2 2.5 ng/mL) [11] = assay: as above; settings: 72 h
[12] = tested on: normal primary NK cells, pool 1 (3 donors) (IL-2 2.5 ng/mL); assay: as above; settings: 72 h
[13] = tested on: normal primary NK cells, pool 1 (3 donors), resting (IL-2 0 ng/mL); assay: as above; settings: 72 h
NK-YS (IL-2 2.5 ng/mL) [14] = assay: percent inhibition of viability; higher = more inhibition; settings: 72 h
[15] = tested on: normal primary NK cells, pool 2 (3 donors) (IL-2 2.5 ng/mL); assay: as above; settings: 72 h
[16] = tested on: normal primary NK cells, pool 3 (3 donors) (IL-2 2.5 ng/mL); assay: as above; settings: 72 h
KAI3 (IL-2 2.5 ng/mL) [17] = assay: as above; settings: 72 h
YT (IL-2 2.5 ng/mL) [18] = assay: as above; settings: 72 h
NKL (IL-2 2.5 ng/mL) [19] = assay: as above; settings: 72 h
NK-92 (IL-2 2.5 ng/mL) [20] = assay: as above; settings: 72 h
SNK-6 (IL-2 2.5 ng/mL) [21] = assay: as above; settings: 72 h
IMC-1 (IL-2 20 ng/mL) [22] = assay: as above; settings: 72 h
DERL-7 (IL-2 2.5 ng/mL) [23] = assay: as above; settings: 72 h
KHYG-1 (IL-2 2.5 ng/mL) [24] = assay: as above; settings: 72 h
[25] = tested on: normal primary NK cells, pool 1 (3 donors) (IL-2 2.5 ng/mL); assay: as above; settings: 72 h
[26] = tested on: normal primary NK cells, pool 1 (3 donors), resting (IL-2 0 ng/mL); assay: as above; settings: 72 h
[27] = tested on: normal NK cells expanded with K562-aAPC; assay: drug sensitivity score (DSS) (DSS units); higher = more sensitive; extreme values may be limits of the assay; settings: 72 h; IL-2 2.5 ng/mL
Protocol: (§1)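 Drug sensitivity and resistance testing on K562-aAPC-expanded normal NK cells: 5 concentrations (10-fold steps over a 10,000-fold range), 72 h at 37 °C, viability by CellTiter-Glo normalised to DMSO and benzethonium chloride controls; DSS from the fitted curve.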

[28] = tested on: normal NK cells expanded with K562-aAPC; assay: percent inhibition of viability; higher = more inhibition; settings: 72 h, IL-2 2.5 ng/mL
Protocol: as §1

CC(C)n1cnc2c(NCCc3ccc(O)cc3)nc(-c3csc4ccccc34)nc21 [StemRegenin 1] (max concentration tested 10000 nM)
Settings | drug sensitivity score
DERL-7 (IL-2 2.5 ng/mL) [10] | 21.1
IMC-1 (IL-2 20 ng/mL) [9] | 0
KAI3 (IL-2 2.5 ng/mL) [4] | 4.25
KHYG-1 (IL-2 2.5 ng/mL) [11] | 6.85
NK-92 (IL-2 2.5 ng/mL) [7] | 10.6
NK-YS (IL-2 2.5 ng/mL) [1] | 1.09
NKL (IL-2 2.5 ng/mL) [6] | 7.36
SNK-6 (IL-2 2.5 ng/mL) [8] | 3.24
YT (IL-2 2.5 ng/mL) [5] | 4.83
[2] | 2.7
[3] | 1.7
[12] | 3.58
[13] | 6.2
[27] | 0

percent inhibition of viability [%]
Settings | 1 nM | 10 nM | 100 nM | 1000 nM | 10000 nM
DERL-7 (IL-2 2.5 ng/mL) [23] | 2.23 | 15.4 | 50.9 | 71.1 | 96.4
IMC-1 (IL-2 20 ng/mL) [22] | -6.67 | -2.1 | -7.77 | -8.29 | 0.67
KAI3 (IL-2 2.5 ng/mL) [17] | -8.14 | 3.68 | 6.57 | -0.19 | 76.8
KHYG-1 (IL-2 2.5 ng/mL) [24] | -5.41 | -0.83 | 0.98 | 8.59 | 98.9
NK-92 (IL-2 2.5 ng/mL) [20] | -11 | -16.6 | 1.48 | 39.2 | 97.7
NK-YS (IL-2 2.5 ng/mL) [14] | -3.67 | -6.84 | -5.59 | 1.14 | 24.9
NKL (IL-2 2.5 ng/mL) [19] | -9.52 | 0.88 | 5.6 | 18.4 | 80.4
SNK-6 (IL-2 2.5 ng/mL) [21] | -6.98 | 28.7 | -5.97 | -12.5 | 71.9
YT (IL-2 2.5 ng/mL) [18] | -5.32 | -2.81 | 0.29 | 5.57 | 71.9
[15] | -1.53 | -2.41 | -0.22 | -2.53 | 54.6
[16] | -3.75 | -2.11 | -2.9 | -0.23 | 36
[25] | -8.25 | -4.37 | -0.27 | 7.52 | 45
[26] | -11.7 | -11.1 | 15.2 | 12.3 | 74.7
[28] | -5.56 | -5.75 | -5.39 | -7.57 | 0.59

CN(N=O)C(=O)N[C@@H](C=O)[C@@H](O)[C@H](O)[C@H](O)CO [Streptozocin] (max concentration tested 10000 nM)
Settings | drug sensitivity score
DERL-7 (IL-2 2.5 ng/mL) [10] | 0
IMC-1 (IL-2 20 ng/mL) [9] | 1.35
KAI3 (IL-2 2.5 ng/mL) [4] | 0
KHYG-1 (IL-2 2.5 ng/mL) [11] | 0
NK-92 (IL-2 2.5 ng/mL) [7] | 0
NK-YS (IL-2 2.5 ng/mL) [1] | 0
NKL (IL-2 2.5 ng/mL) [6] | 0
SNK-6 (IL-2 2.5 ng/mL) [8] | 12.4
YT (IL-2 2.5 ng/mL) [5] | 0
[2] | 0
[3] | 0
[12] | 0
[13] | 0
[27] | 0.16

percent inhibition of viability [%]
Settings | 1 nM | 10 nM | 100 nM | 1000 nM | 10000 nM
DERL-7 (IL-2 2.5 ng/mL) [23] | -4.65 | -4.39 | -0.36 | -4.36 | -9.4
IMC-1 (IL-2 20 ng/mL) [22] | -3 | -1.77 | 1.49 | 5.01 | 21.2
KAI3 (IL-2 2.5 ng/mL) [17] | -8.8 | -7.24 | -7.83 | -15.1 | -3.23
KHYG-1 (IL-2 2.5 ng/mL) [24] | -0.99 | -4.93 | 2.57 | -0.52 | 4.73
NK-92 (IL-2 2.5 ng/mL) [20] | -10.2 | -0.49 | -2.54 | -2.99 | -3.48
NK-YS (IL-2 2.5 ng/mL) [14] | -3.08 | -5.94 | 5.25 | -5.62 | 10.8
NKL (IL-2 2.5 ng/mL) [19] | -22.4 | -14.9 | -15.8 | -16.6 | -9.59
SNK-6 (IL-2 2.5 ng/mL) [21] | 4.98 | 18.1 | 36.6 | 23.4 | 36.7
YT (IL-2 2.5 ng/mL) [18] | -1.12 | -3.14 | 1.58 | -0.51 | 9.38
[15] | -14.4 | -2.41 | 1.68 | -6.8 | -12.2
[16] | -12.8 | -5.88 | -5.23 | -3.37 | -3
[25] | -0.38 | -7.4 | -2.69 | -9.47 | -1.13
[26] | -9.25 | -22.8 | -15.8 | -38.7 | -21.4
[28] | -0.04 | 4.41 | 2.61 | 7.51 | 13.9
